This is an account of results in publication PMC7293037, “Fuse to defuse: a self-limiting ribonuclease-ring nuclease fusion for type III CRISPR defence” (Nucleic Acids Research, 2020).

Test [1] concerns the target T1, Csx1-Crn2.
T1 construct: full length, 563 aa natural fusion; synthetic gene codon-optimised, expressed in E. coli C43 (DE3); N-terminal His tag removed by TEV; V177L in the cloned gene; dimer
Nature of the test: EMSA with radiolabelled cA4. The format is binding, Marinitoga piezophila. The conditions noted are these: pH 7.5, 2 mM MgCl2, 25 °C; Crn2 ring nuclease site (CARF site also present); labelled compound; read-out: apparent KD.

Test [2] concerns the target T1, Csx1-Crn2. Description: EMSA with radiolabelled cA4. The conditions noted are these: pH 7.5, 2 mM MgCl2, 25 °C; Crn2 ring nuclease site (CARF site also present); labelled compound; no obvious gel shift, value judged from cA4 cleavage at high protein concentration; discussion gives > 1; read-out: apparent KD. Format: binding, Marinitoga piezophila. Background: A gel shift assay detects complexes by their altered migration in electrophoresis.

Like-named read-outs stand apart in the source and are kept apart here.

For the molecule `Nc1ncnc2c1ncn2[C@@H]1O[C@@H]2COP(=O)(O)O[C@H]3[C@@H](O)[C@H](n4cnc5c(N)ncnc54)O[C@@H]3COP(=O)(O)O[C@H]3[C@@H](O)[C@H](n4cnc5c(N)ncnc54)O[C@@H]3COP(=O)(O)O[C@H]3[C@@H](O)[C@H](n4cnc5c(N)ncnc54)O[C@@H]3COP(=O)(O)O[C@H]2[C@H]1O` [cA4], the Kd is approximately 20 nM on Csx1-Crn2 [1] and approximately 1000 nM on Csx1-Crn2 [2].
